Test results published in patent US9556179B2 (BRISTOL-MYERS SQUIBB COMPANY, priority 2012, dated 2017).

Experiments:
[1] = molecular target: CK1δ (Homo sapiens (Human), UniProt P48730); assay: CK1δ kinase assay (Caliper LABCHIP electrophoretic separation of fluoresceinated peptide substrate and product); assay type: biochemical; conditions: 200 pM enzyme, 50 μM ATP, 22 hours at room temperature
Summary of the method: (§1)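 IC50 values were obtained by non-linear regression from eleven-concentration titrations. The kinase reactions were incubated for 22 hours at room temperature before termination with 35 mM EDTA.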

[2] = molecular target: CK1ε (Homo sapiens (Human), UniProt P49674); assay: CK1ε kinase assay (Caliper LABCHIP electrophoretic separation of fluoresceinated peptide substrate and product); assay type: biochemical; conditions: 200 pM enzyme, 50 μM ATP, 22 hours at room temperature
Chain of CK1ε (P49674 whole entry): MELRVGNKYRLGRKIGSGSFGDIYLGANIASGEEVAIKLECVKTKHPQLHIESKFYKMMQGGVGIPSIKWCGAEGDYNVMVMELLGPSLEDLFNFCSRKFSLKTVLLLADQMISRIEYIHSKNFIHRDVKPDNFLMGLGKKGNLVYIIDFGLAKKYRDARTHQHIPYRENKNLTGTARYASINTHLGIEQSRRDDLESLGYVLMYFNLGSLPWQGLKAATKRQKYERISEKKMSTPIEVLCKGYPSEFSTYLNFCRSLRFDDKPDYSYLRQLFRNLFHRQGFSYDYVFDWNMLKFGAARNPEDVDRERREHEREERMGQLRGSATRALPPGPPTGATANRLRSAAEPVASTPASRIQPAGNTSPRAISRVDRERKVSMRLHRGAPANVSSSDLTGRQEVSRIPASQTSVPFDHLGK
Summary of the method: as §1

Chain of CK1δ (P48730 whole entry): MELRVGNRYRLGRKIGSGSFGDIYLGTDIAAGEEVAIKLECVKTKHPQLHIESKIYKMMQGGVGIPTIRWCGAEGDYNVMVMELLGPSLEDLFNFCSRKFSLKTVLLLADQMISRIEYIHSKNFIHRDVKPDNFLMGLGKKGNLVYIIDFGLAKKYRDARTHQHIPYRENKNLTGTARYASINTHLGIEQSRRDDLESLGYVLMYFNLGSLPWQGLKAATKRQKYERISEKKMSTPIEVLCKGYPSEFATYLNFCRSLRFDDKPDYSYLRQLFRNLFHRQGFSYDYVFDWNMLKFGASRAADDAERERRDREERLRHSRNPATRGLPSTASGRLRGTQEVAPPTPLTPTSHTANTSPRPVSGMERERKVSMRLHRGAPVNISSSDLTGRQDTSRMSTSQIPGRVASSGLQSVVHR

IC50 [1] [nM] | IC50 [2] [nM] | SMILES
0.732 | 3.12 | O=C(Nc1cn2nc(-c3c(-c4ccc(F)cc4)ncn3C3CCNCC3)ccc2n1)c1ccnc(N2CCOCC2)c1 [Compound 106, N-(6-(4-(4-fluorophenyl)-1-(piperidin-4-yl)-1H-imidazol-5-yl)imidazo[1,2-b]pyridazin-2-yl)-2-morpholinoisonicotinamide]
0.147 | 0.719 | O=C(Nc1cn2nc(-c3c(-c4ccc(F)cc4)ncn3CCc3cn[nH]c3)ccc2n1)c1ccnc(F)c1 [Compound 265]
0.438 | 4.35 | Cc1nc(-c2ccc(F)cc2)c(-c2ccc3nc(NC(=O)C(C)(C)C)cn3n2)n1C [Compound 414, N-(6-(4-(4-Fluorophenyl)-1,2-dimethyl-1H-imidazol-5-yl)imidazo[1,2-b]pyridazin-2-yl)pivalamide]
0.4 | 6.28 | Cc1nc(-c2ccc(F)cc2)c(-c2ccc3nc(NC(=O)c4snnc4-c4ccccc4)cn3n2)n1C [Compound 340, N-(6-(4-(4-fluorophenyl)-1,2-dimethyl-1H-imidazol-5-yl)imidazo[1,2-b]pyridazin-2-yl)-4-phenyl-1,2,3-thiadiazole-5-carboxamide]
0.7 | 6.9 | O=C(Nc1cn2nc(-c3c(-c4ccc(F)cc4)nc4n3CCOC4)ccc2n1)c1ccnc(N2CCOCC2)c1 [Compound 450, N-(6-(2-(4-Fluorophenyl)-6,8-dihydro-5H-imidazo[2,1-c][1,4]oxazin-3-yl)imidazo[1,2-b]pyridazin-2-yl)-2-morpholinoisonicotinamide]
0.243 | 0.484 | Cc1nc(-c2cccnc2)sc1C(=O)Nc1cn2nc(-c3c(-c4ccc(F)cc4)ncn3C3CCN(C(=O)CC(F)(F)F)CC3)ccc2n1 [Compound 102, N-(6-(4-(4-fluorophenyl)-1-(1-(3,3,3-trifluoropropanoyl)piperidin-4-yl)-1H-imidazol-5-yl)imidazo [1,2-b]pyridazin-2-yl)-4-methyl-2-(pyridin-3-yl)thiazole-5-carboxamide]
3.88 | 4.41 | Cc1nc(-c2ccc(F)cc2)c(-c2ccc3nc(NC(=O)c4cncs4)cn3n2)n1C [Compound 396, N-(6-(4-(4-fluorophenyl)-1,2-dimethyl-1H-imidazol-5-yl)imidazo[1,2-b]pyridazin-2-yl)thiazole-5-carboxamide]
0.95 | 6.03 | O=C(Nc1cn2nc(-c3c(-c4ccc(F)cc4)nc(C4CC4)n3C3CCN(C(=O)Nc4ccncc4)CC3)ccc2n1)c1ccnc(F)c1 [Compound 125, N-(6-(2-cyclopropyl-4-(4-fluorophenyl)-1-(1-(pyridin-4-ylcarbamoyl)piperidin-4-yl)-1H-imidazol-5-yl)imidazo[1,2-b]pyridazin-2-yl)-2-fluoroisonicotinamide]
2.25 | 26.6 | Cc1nc(-c2ccc(F)cc2)c(-c2ccc3nc(NC(=O)c4ccnc(F)c4)c(Cl)n3n2)n1C [Compound 412, N-(3-Chloro-6-(4-(4-fluorophenyl)-1,2-dimethyl-1H-imidazol-5-yl)imidazo[1,2-b]pyridazin-2-yl)-2-fluoroisonicotinamide]
4.45 | 10.5 | Cc1nc(-c2ccc(F)cc2)c(-c2ccc3nc(NC(=O)c4ccnnc4)cn3n2)n1C [Compound 391, N-(6-(4-(4-fluorophenyl)-1,2-dimethyl-1H-imidazol-5-yl)imidazo[1,2-b]pyridazin-2-yl)pyridazine-4-carboxamide]
0.306 | 3.3 | O=C(Nc1cn2nc(-c3c(-c4ccc(F)cc4)ncn3C3CCN(C(=O)CC(F)(F)F)CC3)ccc2n1)c1ccnc(N2CCOCC2)c1 [Compound 108, N-(6-(4-(4-fluorophenyl)-1-(1-(3,3,3-trifluoropropanoyl)piperidin-4-yl)-1H-imidazol-5-yl)imidazo[1,2-b]pyridazin-2-yl)-2-morpholinoisonicotinamide]
0.186 | 0.76 | Cc1cc(-c2nc(C)n(CCF)c2-c2ccc3nc(NC(=O)c4ccnc(F)c4)cn3n2)ccc1F [Compound 299, 2-fluoro-N-(6-(4-(4-fluoro-3-methylphenyl)-1-(2-fluoroethyl)-2-methyl-1H-imidazol-5-yl)imidazo[1,2-b]pyridazin-2-yl) isonicotinamide]
0.854 | 2.73 | CN1CC(n2cnc(-c3ccc(F)cc3)c2-c2ccc3nc(NC(=O)c4ccncc4)cn3n2)C1 [Compound 158, N-(6-(4-(4-fluorophenyl)-1-(1-methylazetidin-3-yl)-1H-imidazol-5-yl)imidazo[1,2-b]pyridazin-2-yl)isonicotinamide]
1.31 | 5.6 | O=C(Nc1cn2nc(-c3c(-c4ccc(F)cc4)ncn3C3CN(CCO)C3)ccc2n1)c1ccncc1 [Compound 159, N-(6-(4-(4-fluorophenyl)-1-(1-(2-hydroxyethyl)azetidin-3-yl)-1H-imidazol-5-yl)imidazo[1,2-b]pyridazin-2-yl)isonicotinamide]
16.7 | 54.5 | Cc1nc(-c2ccc(F)cc2)c(-c2ccc3nc(NC(=O)c4ccccc4CN(C)C)cn3n2)n1C [Compound 392, 2-((dimthylamino)methyl)-N-(6-(4-(4-fluorophenyl)-1,2-dimethyl-1H-imidazol-5-yl)imidazo[1,2-b]pyridazin-2-yl)benzamide]
0.6 | 5.4 | CC(C)(C)NC(=O)N1CCn2c(nc(-c3ccc(F)cc3)c2-c2ccc3nc(NC(=O)c4ccnc(F)c4)cn3n2)C1 [Compound 481, N-(tert-Butyl)-3-(2-(2-fluoroisonicotinamido)imidazo[1,2-b]pyridazin-6-yl)-2-(4-fluorophenyl)-5,6-dihydroimidazo[1,2-a]pyrazine-7(8H)-carboxamide]
2.04 | 4.35 | O=C(Nc1cn2nc(-c3c(-c4ccc(F)cc4)nc4ccccn34)ccc2n1)c1cccc(-c2cncnc2)c1 [Compound 205, N-(6-(2-(4-fluorophenyl)imidazo[1,2-a]pyridin-3-yl)imidazo[1,2-b]pyridazin-2-yl)-3-(pyrimidin-5-yl)benzamide]
0.186 | 1.26 | O=C(Nc1cn2nc(-c3c(-c4ccc(F)cc4)ncn3C3CCN(C(=O)CN4CCOCC4)CC3)ccc2n1)c1ccnc(F)c1 [Compound 61, 2-fluoro-N-(6-(4-(4-fluorophenyl)-1-(1-(2-morpholinoacetyl)piperidin-4-yl)-1H-imidazol-5-yl)imidazo[1,2-b]pyridazin-2-yl)isonicotinamide]
0.365 | 1.35 | O=C(Nc1cn2nc(-c3c(-c4ccc(F)cc4)ncn3CC(F)F)ccc2n1)c1ccnc(F)c1 [Compound 237, N-(6-(1-(2,2-difluoroethyl)-4-(4-fluorophenyl)-1H-imidazol-5-yl)imidazo[1,2-b]pyridazin-2-yl)-2-fluoroisonicotinamide]
0.266 | 1.15 | O=C(Nc1cn2nc(-c3c(-c4ccc(F)cc4)ncn3CC(F)(F)F)ccc2n1)c1ccnc(F)c1 [Compound 236]
0.371 | 1.1 | O=C(Nc1cn2nc(-c3c(-c4ccc(F)cc4)ncn3CC3CC(F)(F)C3)ccc2n1)c1ccnc(F)c1 [Compound 249, N-(6-(1-((3,3-difluorocyclobutyl)methyl)-4-(4-fluorophenyl)-1H-imidazol-5-yl)imidazo[1,2-b]pyridazin-2-yl)-2-fluoroiso-nicotinamide]
0.192 | 1.3 | O=C(Nc1cn2nc(-c3c(-c4ccc(F)cc4)ncn3CCN3CCOCC3)ccc2n1)c1ccnc2ccccc12 [Compound 166, N-(6-(4-(4-fluorophenyl)-1-(2-morpholinoethyl)-1H-imidazol-5-yl)imidazo[1,2-b]pyridazin-2-yl)quinoline-4-carboxamide]
1.83 | 29.5 | Cc1nocc1C(=O)Nc1cn2nc(-c3c(-c4ccc(F)cc4)nc4ccccn34)ccc2n1 [Compound 209, N-(6-(2-(4-fluorophenyl)imidazo[1,2-a]pyridin-3-yl)imidazo[1,2-b]pyridazin-2-yl)-3-methylisoxazole-4-carboxamide]
0.034 | 0.095 | Cc1nc(-c2cccnc2)sc1C(=O)Nc1cn2nc(-c3c(-c4ccc(F)cc4)ncn3C3CCN(CCO)CC3)ccc2n1 [Compound 97, N-(6-(4-(4-fluorophenyl)-1-(1-(2-hydroxyethyl)piperidin-4-yl)-1H-imidazol-5-yl)imidazo [1,2-b]pyridazin-2-yl)-4-methyl-2-(pyridin-3-yl) thiazole-5-carboxamide]
0.215 | 14.1 | O=C(Nc1cn2nc(-c3c(-c4ccc(F)cc4)ncn3C3CCN(Cc4ccc(F)cc4)CC3)ccc2n1)c1ccnc(F)c1 [Compound 15, 2-fluoro-N-(6-(1-(1-(4-fluorobenzyI)piperidin-4-yl)-4-(4-fluorophenyl)-1H-imidazol-5-yl)imidazo[1,2-b]pyridazin-2-yl)isonicotinamide]
1.2 | 6.5 | O=C(Nc1cn2nc(-c3c(-c4ccc(F)cc4)nc4n3CCN(C(=O)CCC(F)(F)F)C4)ccc2n1)c1ccnc(F)c1 [Compound 462, 2-Fluoro-N-(6-(2-(4-fluorophenyl)-7-(4,4,4-trifluorobutanoyl)-5,6,7,8-tetrahydroimidazo[1,2-a]pyrazin-3-yl)imidazo[1,2-b]pyridazin-2-yl)isonicotinamide]
0.456 | 2.31 | O=C(Nc1cn2nc(-c3c(-c4ccc(F)cc4)ncn3CCOCCO)ccc2n1)c1ccnc(F)c1 [Compound 234]

SMILES | IC50 [1] [nM] | IC50 [2] [nM]
CC(C)c1nc(-c2ccc(F)cc2)c(-c2ccc3nc(NC(=O)c4ccnc(F)c4)cn3n2)n1CC(F)F [Compound 287, N-(6-(1-(2,2-difluoroethyl)-4-(4-fluorophenyl)-2-isopropyl-1H-imidazol-5-yl)imidazo[1,2-b]pyridazin-2-yl)-2-fluoroiso-nicotinamide] | 0.776 | 9.17
O=C(Nc1cn2nc(-c3c(-c4ccc(F)cc4)nc(C4CC4)n3CC(F)F)ccc2n1)c1ccnc(F)c1 [Compound 285] | 0.245 | 1.22
